From the NIST ThermoML archive (doi:10.1016/j.jct.2019.03.023)

Experiment: molar heat capacity at constant volume
Conditions: Fluid (supercritical or subcritical phases), Vacuum adiabatic calorimetry

CC(C)O [propan-2-ol]
Conditions	molar heat capacity at constant volume [J/K/mol]
510.52 K, Mass density=293.3 kg/m3	192.91
510.52 K, Mass density=343.1 kg/m3	174.76
510.61 K, Mass density=281.9 kg/m3	198.13
510.61 K, Mass density=293.3 kg/m3	186.78
510.61 K, Mass density=343.1 kg/m3	182.21
510.7 K, Mass density=281.9 kg/m3	193.39
510.7 K, Mass density=343.1 kg/m3	185.93
510.79 K, Mass density=281.9 kg/m3	196.69
510.79 K, Mass density=343.1 kg/m3	177.04
510.89 K, Mass density=281.9 kg/m3	193.39
510.98 K, Mass density=281.9 kg/m3	188.88
511.07 K, Mass density=281.9 kg/m3	188.94
511.16 K, Mass density=281.9 kg/m3	193.51
511.26 K, Mass density=281.9 kg/m3	188.94
511.35 K, Mass density=281.9 kg/m3	192.78
511.44 K, Mass density=281.9 kg/m3	189
511.53 K, Mass density=281.9 kg/m3	191.7
515.15 K, Mass density=293.3 kg/m3	182.39
515.24 K, Mass density=293.3 kg/m3	178.06
515.33 K, Mass density=293.3 kg/m3	182.39
515.42 K, Mass density=293.3 kg/m3	173.67
515.51 K, Mass density=293.3 kg/m3	178.06
515.61 K, Mass density=293.3 kg/m3	173.73
515.7 K, Mass density=293.3 kg/m3	178.12
515.79 K, Mass density=293.3 kg/m3	185.39
515.88 K, Mass density=293.3 kg/m3	178.12
515.98 K, Mass density=234.3 kg/m3	168.75
515.98 K, Mass density=293.3 kg/m3	174.52
516.07 K, Mass density=234.3 kg/m3	174.22
516.16 K, Mass density=234.3 kg/m3	168.75
516.25 K, Mass density=234.3 kg/m3	163.28
516.34 K, Mass density=234.3 kg/m3	174.28
516.44 K, Mass density=234.3 kg/m3	163.88
516.53 K, Mass density=234.3 kg/m3	168.81
516.62 K, Mass density=234.3 kg/m3	168.87
516.71 K, Mass density=234.3 kg/m3	163.4
516.71 K, Mass density=281.9 kg/m3	181.31
516.81 K, Mass density=234.3 kg/m3	168.87
516.81 K, Mass density=281.9 kg/m3	181.31
516.9 K, Mass density=234.3 kg/m3	168.87
516.9 K, Mass density=281.9 kg/m3	176.74
516.99 K, Mass density=281.9 kg/m3	176.8
517.08 K, Mass density=281.9 kg/m3	185.87
517.18 K, Mass density=281.9 kg/m3	176.8
517.27 K, Mass density=281.9 kg/m3	181.19
517.54 K, Mass density=274 kg/m3	189.48
517.64 K, Mass density=274 kg/m3	184.79
517.73 K, Mass density=274 kg/m3	180.04
517.82 K, Mass density=274 kg/m3	183.77
517.91 K, Mass density=274 kg/m3	180.1
518 K, Mass density=274 kg/m3	187.14
518.07 K, Mass density=274 kg/m3	180.1
518.1 K, Mass density=274 kg/m3	183.35
518.28 K, Mass density=274 kg/m3	181.73
518.37 K, Mass density=274 kg/m3	182.81
518.47 K, Mass density=255.8 kg/m3	166.04
518.56 K, Mass density=255.8 kg/m3	167.12
518.65 K, Mass density=255.8 kg/m3	169.05
518.74 K, Mass density=255.8 kg/m3	166.34
518.83 K, Mass density=255.8 kg/m3	165.14
518.93 K, Mass density=255.8 kg/m3	167.97
519.02 K, Mass density=255.8 kg/m3	165.14
519.11 K, Mass density=255.8 kg/m3	170.19
519.2 K, Mass density=255.8 kg/m3	165.2
519.29 K, Mass density=255.8 kg/m3	166.64
519.39 K, Mass density=255.8 kg/m3	168.99
521.23 K, Mass density=293.3 kg/m3	170.43
521.32 K, Mass density=293.3 kg/m3	170.43
521.41 K, Mass density=293.3 kg/m3	170.43
521.5 K, Mass density=293.3 kg/m3	161.66
521.59 K, Mass density=293.3 kg/m3	174.88
521.68 K, Mass density=293.3 kg/m3	170.49
521.78 K, Mass density=293.3 kg/m3	166.34
521.87 K, Mass density=281.9 kg/m3	173.13
521.87 K, Mass density=293.3 kg/m3	169.71
521.96 K, Mass density=281.9 kg/m3	168.57
522.05 K, Mass density=281.9 kg/m3	173.19
522.14 K, Mass density=281.9 kg/m3	173.19
522.23 K, Mass density=281.9 kg/m3	173.19
522.33 K, Mass density=281.9 kg/m3	168.63
522.42 K, Mass density=281.9 kg/m3	171.63
522.51 K, Mass density=281.9 kg/m3	173.25
522.6 K, Mass density=281.9 kg/m3	168.69
524.07 K, Mass density=274 kg/m3	171.75
524.16 K, Mass density=274 kg/m3	171.75
524.25 K, Mass density=274 kg/m3	176.5
524.34 K, Mass density=274 kg/m3	176.5
524.43 K, Mass density=274 kg/m3	176.56
524.53 K, Mass density=274 kg/m3	171.81
524.62 K, Mass density=274 kg/m3	176.56
524.71 K, Mass density=274 kg/m3	167.12
524.8 K, Mass density=274 kg/m3	171.87
